Data: patent publication US8148516B2, “Flowcell systems for single molecule detection” (Pacific Biosciences of California, Inc., priority 2000, dated 2012)

Assay: Capillary electrophoresis of dTTP and dTDP: effect of Mg++ on electrophoretic mobility
Type: physicochemical
Conditions: 50 mM Tris-acetate pH 8.0, 60 mM KCl; for effect of Mg++ on electrophoretic mobility: MgCl2 3-40 mM
Experimental: The effect of Mg^++ on the electrophoretic mobility of dTTP and dTDP was determined by capillary electrophoresis. Electrophoresis buffer contained 50 mM Tris-acetate pH 8.0, 60 mM KCl, and various concentrations of MgCl2 (3, 4, 6, 10, 15, 25 and 40 mM). The sample contained 0.5 mM nucleotide (dTTP or dTDP; Sigma) and 0.8 mM mesityl oxide (electroneutral marker; Sigma). The samples were analyzed by capillary electrophoresis (Hewlett Packard) using an uncoated fused silica capillary (40 cm from injection end to detection zone). Voltage was 8.5 kV and peaks were monitored by optical absorbance at 260 nm. Electrokinetic velocity of each sample peak was calculated by dividing distance (40 cm) by elution time. Electroosmotic flow (EOF) of the bulk buffer is taken as the velocity of the mesityl oxide marker. Nucleotide electrophoretic velocity is the nucleotide electrokinetic velocity minus EOF. Nucleotide electrophoretic velocities are plotted as a function of Mg^++ concentration (FIG. 11A).

| effect of Mg++ on electrophoretic mobility | Structure (SMILES) | electrophoretic mobility compared with dTDP (3-40 mM MgCl2, 8.5 kV) |
| --- | --- | --- |
| from more negative to less negative | Cc1cn([C@H]2C[C@H](O)[C@@H](COP(=O)(O)OP(=O)(O)O)O2)c(=O)[nH]c1=O [dTDP] | – |
| from more negative to less negative | Cc1cn([C@H]2C[C@H](O)[C@@H](COP(=O)(O)OP(=O)(O)OP(=O)(O)O)O2)c(=O)[nH]c1=O [dTTP] | more negative electrophoretic mobility than the dTDP |
